Key:
[1] = tested on: chick chorioallantoic membrane (CAM); experiment: Chick chorioallantoic membrane (CAM) angiogenesis assay; assay type: in vivo; conditions: pro-angiogenic factor alone
Description: Examples of the CAM assay methodology may include the step of providing chick embryos. In some embodiments, the chick embryos may be approximately 10 days old. The chick embryos may be incubated at approximately 37° C. with approximately 55% relative humidity. A hypodermic needle may be used to make a small hole in the shell concealing an air sac, and a second hole may be made on the broad side of the egg, directly over an avascular portion of the embryonic membrane. A false air sac may be created beneath the second hole by the application of negative pressure at the first hole, causing the CAM to separate from the shell. A window, approximately 1.0 cm^2, in size may be cut in the shell over the CAM with a small-crafts grinding wheel, allowing direct access to the underlying CAM. In some embodiments, a pro-angiogenic agent may be provided to induce new blood vessel branches on the CAM of 10-day-old embryos. In the exemplary embodiment, the pro-angiogenic agents may be the endogenous non-peptide pro-angiogenic hormones supplied in the patient's blood sample. The patient's blood sample may subsequently be introduced into the xenograft having a vasculature system in the CAM. The pro-angiogenic agent, the blood or serum sample of the patient along with one or more anti-angiogenic agents may be applied to a sterile disk and followed by allowing the disks to dry. In some embodiments of the CAM assay, Sterile disks of No. 1 filter paper (Whatman International) may be pretreated with approximately 3 mg/mL cortisone acetate and 1 mmol/L of the patient's blood or serum, along with one or more anti-angiogenic agents and air dried under sterile conditions. The disks may then be suspended in phosphate buffered saline (PBS) and placed on growing CAMs. At approximately the 24 hour mark, a mitogen-activated protein kinase (MAPK) cascade inhibitor such as PD 98059 may also be added to CAMs topically by means of the filter disks. Exemplary embodiments having one or more anti-angiogenic agent, may include two, three, four, five or more anti-angiogenic agents, including at least one thyroid hormone antagonist such as tetrac, triac, or conjugated tetrac or triac. After incubation at 37° C. with 55% relative humidity for 3 days, the CAM tissue directly beneath each filter disk may be resected and treated. The tissues may subsequently be washed approximately three times with PBS, placed in 35-mm Petri dishes (Nalge Nunc), and examined under a stereomicroscope at approximately 50× magnification or more. Digital images of CAM sections exposed to filters may be collected and quantified using a 3-charge-coupled device color video camera system and analyzed with Image-Pro software (Media Cybernetics) or equivalent software. Embodiments of the CAM system may not only index tumor-related angiogenesis, but permits spherical tumor growth of the implanted cells. Spherical growth may be important to the development of a hypoxic cell population that resemble tumor behavior clinically. Aggressive xenograft behavior in the CAM model may include metastasis to the chick embryo in the system.

integrin αvβ3 = integrin αvβ3 (Homo sapiens, UniProt P05106+P06756); conditions: cited from earlier work
Chain of integrin αvβ3 (P06756 31-889 limits assumed): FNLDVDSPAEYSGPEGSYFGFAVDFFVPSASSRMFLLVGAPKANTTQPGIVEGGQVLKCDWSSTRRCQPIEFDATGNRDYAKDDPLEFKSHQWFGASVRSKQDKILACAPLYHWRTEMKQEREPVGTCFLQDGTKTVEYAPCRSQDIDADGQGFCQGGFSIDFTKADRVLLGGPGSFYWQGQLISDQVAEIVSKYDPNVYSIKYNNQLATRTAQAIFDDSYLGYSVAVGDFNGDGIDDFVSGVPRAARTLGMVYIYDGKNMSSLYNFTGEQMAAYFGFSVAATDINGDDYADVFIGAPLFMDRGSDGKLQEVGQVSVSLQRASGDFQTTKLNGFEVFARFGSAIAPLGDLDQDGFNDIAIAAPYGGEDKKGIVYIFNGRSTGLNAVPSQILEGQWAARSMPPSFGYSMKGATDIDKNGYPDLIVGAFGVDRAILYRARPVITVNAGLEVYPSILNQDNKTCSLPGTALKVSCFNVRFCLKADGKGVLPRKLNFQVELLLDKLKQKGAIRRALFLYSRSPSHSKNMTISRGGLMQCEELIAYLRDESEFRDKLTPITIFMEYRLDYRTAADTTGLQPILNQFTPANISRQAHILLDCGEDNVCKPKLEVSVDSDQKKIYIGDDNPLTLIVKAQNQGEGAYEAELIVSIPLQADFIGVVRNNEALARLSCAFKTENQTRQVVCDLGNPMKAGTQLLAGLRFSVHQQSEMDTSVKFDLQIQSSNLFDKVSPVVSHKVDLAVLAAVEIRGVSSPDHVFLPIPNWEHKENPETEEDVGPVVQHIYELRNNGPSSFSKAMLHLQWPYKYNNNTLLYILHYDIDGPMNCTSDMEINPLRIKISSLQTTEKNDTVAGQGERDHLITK
Chain of integrin αvβ3 (P06756 891-1048 partner limits assumed): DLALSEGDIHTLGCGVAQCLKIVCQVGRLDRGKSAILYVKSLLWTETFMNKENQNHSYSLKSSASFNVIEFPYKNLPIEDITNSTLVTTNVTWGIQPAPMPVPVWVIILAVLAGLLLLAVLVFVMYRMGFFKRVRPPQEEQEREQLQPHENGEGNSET
Chain of integrin αvβ3 (P05106 27-788): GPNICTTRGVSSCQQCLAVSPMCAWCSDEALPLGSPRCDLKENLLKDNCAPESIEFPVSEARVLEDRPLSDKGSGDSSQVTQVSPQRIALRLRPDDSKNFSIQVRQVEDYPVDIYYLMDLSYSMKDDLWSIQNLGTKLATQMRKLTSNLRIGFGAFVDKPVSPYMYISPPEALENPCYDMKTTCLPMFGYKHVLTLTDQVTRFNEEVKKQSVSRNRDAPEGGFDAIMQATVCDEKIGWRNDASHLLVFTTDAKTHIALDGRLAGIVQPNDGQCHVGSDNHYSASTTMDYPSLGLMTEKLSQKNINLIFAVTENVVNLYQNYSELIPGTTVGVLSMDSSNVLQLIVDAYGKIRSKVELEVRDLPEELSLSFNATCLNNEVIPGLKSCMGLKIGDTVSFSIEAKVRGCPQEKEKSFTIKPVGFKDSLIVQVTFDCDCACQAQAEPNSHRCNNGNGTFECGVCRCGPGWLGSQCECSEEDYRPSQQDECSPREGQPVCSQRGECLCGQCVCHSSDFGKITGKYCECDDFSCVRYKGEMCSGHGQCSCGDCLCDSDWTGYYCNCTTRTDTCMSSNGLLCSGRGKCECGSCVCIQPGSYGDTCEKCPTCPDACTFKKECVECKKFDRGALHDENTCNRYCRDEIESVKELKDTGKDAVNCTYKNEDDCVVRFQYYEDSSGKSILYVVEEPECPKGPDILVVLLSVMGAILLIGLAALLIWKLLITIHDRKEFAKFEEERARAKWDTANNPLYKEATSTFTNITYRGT

[2] = tested on: basic fibroblast growth factor (bFGF, FGF2), vascular endothelial growth factor (VEGF); conditions: in the absence of thyroid hormone; cited from earlier work
glioma cells = conditions: in vitro; cited from earlier work
[3] = tested on: human breast cancer cells; conditions: in vitro; cited from earlier work

N[C@@H](Cc1cc(I)c(Oc2ccc(O)c(I)c2)c(I)c1)C(=O)O [T3, 3,5,3′-triiodo-L-thyronine]
Branch points ± SEM [1]: 186.8 ± 16.4

N[C@@H](Cc1cc(I)c(Oc2cc(I)c(O)c(I)c2)c(I)c1)C(=O)O [T4, L-thyroxine]
Branch points ± SEM [1]: 119.2 ± 15.6

Angiotensin II (DRVYIHPF; Angiotensin-2; UniProt P01019 25-32, looked up) [small molecule that supports neovascularization; pro-angiogenic factor in the CAM assay]
Branch points ± SEM [1]: 103.2 ± 25.9

Tetraiodothyroacetic acid [tetrac]
agonist activity at the integrin (integrin αvβ3): no agonist activity | binding of T4 and T3 to the integrin (integrin αvβ3): inhibits binding | angiogenic activity of bFGF, VEGF and other pro-angiogenic factors [2]: blocks the angiogenic activity | growth of glioma cells (glioma cells): arrest growth | growth of human breast cancer cells [3]: arrest growth

VEGF
Branch points ± SEM [1]: 182.4 ± 8.4

bFGF: basic fibroblast growth factor
Branch points ± SEM [1]: 184.6 ± 18.5
